Measurements from PubChem BioAssay AID330 (DTP/NCI, 2004).
Values joined by “and” are separate entries in the source; they are usually repeats but may differ in a detail not shown here. Identical values can stand only once. Inconclusive results and toxic doses are left out. The calls were made as follows: active = survival T/C of 150% or more; inactive = T/C below 125% in these data.

System: P388 leukemia ip, CD2F1 mice, survival T/C
Assay: NCI In Vivo Anticancer Drug Screen. Data for tumor model P388 Leukemia (intraperitoneal) in CD2F1 (CDF1) mice
Conditions: endpoint: median survival time, higher = longer survival
How it was run: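 Mice carrying the transplanted tumor received test compound or vehicle. Survival was recorded in each group, and the value is the treated-group measurement divided by that of the vehicle-treated control group.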

[1] = dose: 60.0 mg/kg/injection, schedule: Q01DX005 (ip), vehicle: saline with Tween-80
[2] = dose: 120.0 mg/kg/injection, schedule: Q01DX005 (ip), vehicle: saline with Tween-80
[3] = dose: 50.0 mg/kg/injection, schedule: Q01DX005 (ip), vehicle: Klucel (hydroxypropylcellulose) (HPC)
[4] = dose: 100.0 mg/kg/injection, schedule: Q01DX005 (ip), vehicle: Klucel (hydroxypropylcellulose) (HPC)

Measured: T/C

NC(=S)N/N=C/c1ccncn1
inactive: dose: 6.25 mg/kg/injection, schedule: Q01DX009 (ip), vehicle: Klucel (hydroxypropylcellulose) (HPC) 93 % of control | dose: 6.25 mg/kg/injection, schedule: Q04DX003 (ip), vehicle: Klucel (hydroxypropylcellulose) (HPC) 111 % of control | dose: 12.5 mg/kg/injection, schedule: Q01DX009 (ip), vehicle: Klucel (hydroxypropylcellulose) (HPC) 92 % of control | dose: 12.5 mg/kg/injection, schedule: Q04DX003 (ip), vehicle: Klucel (hydroxypropylcellulose) (HPC) 101 % of control | dose: 12.5 mg/kg/injection, schedule: Q04DX003 (ip), vehicle: saline with Tween-80 123 % of control | dose: 25.0 mg/kg/injection, schedule: Q01DX009 (ip), vehicle: Klucel (hydroxypropylcellulose) (HPC) 100 % of control | dose: 25.0 mg/kg/injection, schedule: Q04DX003 (ip), vehicle: Klucel (hydroxypropylcellulose) (HPC) 111 % of control | dose: 50.0 mg/kg/injection, schedule: Q04DX003 (ip), vehicle: Klucel (hydroxypropylcellulose) (HPC) 112 % of control

NC(CCC(N)C(=O)c1ccccc1)C(=O)c1ccccc1 (stereo not given)
inactive: [1] 98 % of control | [2] 101 % of control | dose: 240.0 mg/kg/injection, schedule: Q01DX005 (ip), vehicle: saline with Tween-80 93 % of control

Cc1nc2cc[nH]n2c(=O)c1CCc1ccccc1
inactive: [1] 90 % of control | [2] 88 % of control

Nc1cc2nnc(-c3ccccc3)c(-c3ccccc3)n2n1
inactive: dose: 25.0 mg/kg/injection, schedule: Q04DX002 (ip), vehicle: saline with Tween-80 91 % of control | dose: 50.0 mg/kg/injection, schedule: Q04DX002 (ip), vehicle: saline with Tween-80 86 % of control

CC(C)C1=C(O)C2=C(C(=O)C1=O)C1(C)CCCC(C)(C)C1C(O)C2OC=O (stereo not given)
inactive: dose: 12.5 mg/kg/injection, schedule: Q01DX005 (ip), vehicle: Klucel (hydroxypropylcellulose) (HPC) 93 % of control | dose: 25.0 mg/kg/injection, schedule: Q01DX005 (ip), vehicle: Klucel (hydroxypropylcellulose) (HPC) 109 % of control | [3] 107 % of control | [4] 111 % of control

CN=Cc1ccc(OC)cc1
inactive: dose: 25.0 mg/kg/injection, schedule: Q01DX009 (ip), vehicle: saline with Tween-80 95 % of control | dose: 50.0 mg/kg/injection, schedule: Q01DX009 (ip), vehicle: saline with Tween-80 95 % of control | dose: 100.0 mg/kg/injection, schedule: Q01DX009 (ip), vehicle: saline with Tween-80 95 % of control

COc1ccc(C2CC(=O)N(c3cccc(C)n3)C(=O)C2)cc1
inactive: dose: 100.0 mg/kg/injection, schedule: Q04DX003 (ip), vehicle: saline 100 % of control | dose: 200.0 mg/kg/injection, schedule: Q04DX003 (ip), vehicle: saline 100 % of control | dose: 400.0 mg/kg/injection, schedule: Q04DX003 (ip), vehicle: saline 108 % of control

O=C(O)CSc1nc(-c2ccccc2)c(-c2ccccc2)n1-c1ccccn1
inactive: dose: 25.0 mg/kg/injection, schedule: Q01DX009 (ip), vehicle: water 103 % of control and 124 % of control | dose: 50.0 mg/kg/injection, schedule: Q01DX009 (ip), vehicle: water 108 % of control and 97 % of control | dose: 100.0 mg/kg/injection, schedule: Q01DX009 (ip), vehicle: water 118 % of control and 122 % of control and 86 % of control | dose: 200.0 mg/kg/injection, schedule: Q01DX009 (ip), vehicle: water 115 % of control and 86 % of control

O=C(OCCn1c(=O)n(CCOC(=O)c2cccc([N+](=O)[O-])c2)c(=O)n(CCOC(=O)c2cccc([N+](=O)[O-])c2)c1=O)c1cccc([N+](=O)[O-])c1
inactive: dose: 100.0 mg/kg/injection, schedule: Q04DX003 (ip), vehicle: Klucel (hydroxypropylcellulose) (HPC) 93 % of control | dose: 200.0 mg/kg/injection, schedule: Q04DX003 (ip), vehicle: Klucel (hydroxypropylcellulose) (HPC) 86 % of control | dose: 400.0 mg/kg/injection, schedule: Q04DX003 (ip), vehicle: Klucel (hydroxypropylcellulose) (HPC) 87 % of control

CCCCN(CCC#N)C(N)=O
inactive: [3] 100 % of control | [4] 100 % of control | dose: 200.0 mg/kg/injection, schedule: Q01DX005 (ip), vehicle: Klucel (hydroxypropylcellulose) (HPC) 100 % of control
